# Measurements as given in patent US7897578B2, “Peptides with anti-proliferative activity” (Societe de Conseils de Recherches et d'Applications …, priority 2006, dated 2011).
# No end group written: not given here.
# Tests used:
# [1] = test system: human SHSY-5Y neuroblastoma tumour xenograft; test: In vivo cell proliferation test, SHSY-5Y cells xenografted into athymic mice; set-up: species or system athymic balb-c NCr-nu/nu mice; conditions: for reduction in the size of the tumour: after 21 days
# Method: 3/In vivo Cell Proliferation Test on Cells of the SHSY-5Y Type with Compound 1:
# (§1) Cancerous cells from human SHSY-5Y neuroblastomas (Code ATCC: CRL-2266) are cultured in DMEM medium (Dulbecco's Modified Eagle's Medium) containing 100 U/ml of penicillin and 100 μg/ml of streptomycin sulphate, complemented with 10% foetal calf serum. The cells thus cultured are then xenografted by sub-cutaneous route into the flanks of athymic balb-c NCr-nu/nu mice, aged 4 to 6 weeks.
# After a latent period of several days following the graft, the SHSY-SY cells proliferate and form a small tumour (approximately 70 mm^3) which is obvious under the flank of the animal.
# Compound 1 is, at this stage of growth of the tumour, injected by intra-peritoneal route in doses of 5 and 10 mg/kg.
# The results are reproduced in FIG. 2 describing the effect of compound 1 on growth kinetics and tumour volume.
# [2] = Toxicity test in xenografted athymic mice (weight of the animals); assay type: in vivo; conditions: 5 and 10 mg/kg intra-peritoneal
# Method: 4/Toxicity Test of Compound 1:
# as §1, with “mice.” for “balb-c NCr-nu/nu mice, aged 4 to 6 weeks.”
# After a latent period of several days, the SHSY-5Y cells proliferate and form a small, obvious tumour (approximately 70 mm^3).
# Compound 1, at this stage of the tumour's growth, is injected by intra-peritoneal route in doses of 5 and 10 mg/kg.
# The results are reproduced in FIG. 3 describing the development of the weight of the animals as a function of time, which is an indicator of the possible toxicity of the products tested in this athymic mouse model.
substance,measurement,setting,value
YTVLSVGPGGLRSGRLPLQPRVQLDER-NH2 [Compound 1],growth kinetics of the tumour,[1]; 5 mg/kg intra-peritoneal,slowing down
same,reduction in the size of the tumour,[1]; 5 mg/kg intra-peritoneal,approximately 20%
same,growth kinetics of the tumour,[1]; 10 mg/kg intra-peritoneal,very clear slowing down
same,reduction in the size of the tumour,[1]; 10 mg/kg intra-peritoneal,approximately 50%
same,anti-tumour activity,"[1]; intra-peritoneal, 5 and 10 mg/kg, SHSY-5Y xenograft",dose-dependant anti-tumour activity
same,toxicity,[2]; inferred from animal weight,apparent absence of toxicity
same,effect on the weight of the animals,[2]; xenografted athymic mice,no effect
